Data as given in article PMC10195864, “Stereochemical engineering yields a multifunctional peptide macrocycle inhibitor of Akt2 by fine-tuning macrocycle-cell membrane interactions” (Communications Chemistry, 2023).
Where “and” joins values, the source holds several entries; their conditions need not be identical. Equal values may be shown once. Entries after “also recorded” stand apart in the source; their conditions may differ. Read-outs that look alike come from different tables or passages of the source. Positions of bridges follow the written chain, without caps; N, C: chain ends. Non-standard residues stand in square brackets, D forms with d. Residues, ends and D or L forms follow the SMILES beside them. R8 = C=CCCCCCC[C@@](C)(N)C(=O)O; S5 = C=CCCC[C@](C)(N)C(=O)O

Columns and labels:
[1] = target: T1, pAkt2 (active His6-tagged Akt2) (Homo sapiens, UniProt P31751); assay: ELISA for peptides against full-length pAkt2 protein (serial dilution); type: binding; conditions: biotinylated ligand immobilized, His6-pAkt2 titrated
T1 construct: purchased Abcam
Method: A total of 2 μM solution of each biotinylated peptide was prepared in binding buffer. A total of 100 μL of each solution was added to each well of a High-Capacity Streptavidin 96 well plate (Thermo Scientific), and the plate was shaken for 2 h at room temperature. The wells were blocked with 5% milk in 25 mM tris chloride, pH = 7.4, 150 mM NaCl and 0.05% Tween 20 (TBST). The wells were washed with binding buffer five times. Serial dilutions of active His6-tagged Akt2 were made in the binding buffer. A total of 100 μL of each solution was added per well, and the plate was shaken overnight at 4 °C. The wells were washed three times with the binding buffer, then treated for an hour with a 1:1000 dilution of anti 6X His mouse monoclonal [HIS.H8] antibody. A 1:10,000 dilution of goat anti-mouse antibody-Horse Radish Peroxide conjugate in binding buffer was added to the wells for an hour. The plate was washed three times with TBST and once with TBS (25 mM tris chloride, pH = 7.5, 150 mM NaCl), treated with TMB substrate (KPL), and quenched with sulfuric acid, and the absorbance at 450 nm wavelength measured. From the absorbance values at 450 nm wavelength (A450) for each protein concentration, the corresponding blank A450 (no ligand immobilized, same concentration of protein added) was subtracted. They were then fitted by non-linear regression in GraphPad Prism 6.

recombinant Akt3 = system: recombinant Akt3; parameters: method as in PMID 25329478; conditions: recombinant Akt; cited from earlier work
pAkt2 = target: T2, pAkt2 (Homo sapiens, UniProt P31751); assay: Protein selectivity ELISA, 25 nM protein; type: binding; conditions: for binding to pAkt2: single-point ELISA, 25 nM protein, A450
T2 construct: purchased Abcam
Method: A total of 1.25 μM biotinylated ligand was prepared by diluting the 1 mM stock in binding buffer (0.1% BSA, 25 mM trisCl, pH = 7.5, 150 mM NaCl, 0.05% Tween20). The prepared ligand solution or 0.125% DMSO (buffer control) in binding buffer was immobilized on a High-Capacity Streptavidin 96 well plate (Thermo Scientific). After washing the excess ligand, the plate was blocked overnight with 1% BSA in TBST. […] After three washes with the binding buffer, the plate was treated for an hour with a 1:1000 dilution of anti-His6 mouse monoclonal antibody in the binding buffer. A 1:10,000 dilution of goat anti-mouse antibody conjugated to Horse Radish Peroxide in binding buffer was added to the wells. The plates were washed four times, five minutes each, with TBST and once with TBS. The color was developed by adding TMB substrate to each well. The reaction was quenched with 0.5 M H2SO4. The absorbance values at 450 nm (A450) were measured on a 96-well plate reader. The Net A450 was obtained by subtracting the absorbance value for the blank control (no immobilized ligand) from each triplicate value obtained for the ligand–epitope interaction.

[2] = target: T3, target phosphopeptide epitope, Akt2 amino acids 450–481 (pS474) (Homo sapiens, UniProt P31751); assay: Epitope selectivity ELISA, 2.5 µM His6-tagged epitope; type: binding; conditions: 1.25 µM ligand immobilized, 2.5 µM epitope
T3 construct: made in house; host or cells: chemical solid-phase peptide synthesis
T3 sequence (P31751 450-481 limits assumed): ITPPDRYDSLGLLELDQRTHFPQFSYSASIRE
Method: A total of 1.25 μM biotinylated ligand was prepared by diluting the 1 mM stock in binding buffer (0.1% BSA, 25 mM trisCl, pH = 7.5, 150 mM NaCl, 0.05% Tween20). The prepared ligand solution or 0.125% DMSO (buffer control) in binding buffer was immobilized on a High-Capacity Streptavidin 96 well plate (Thermo Scientific). After washing the excess ligand, the plate was blocked overnight with 1% BSA in TBST. 2.5 μM solutions of the His6-tagged target phosphopeptide epitope, Akt2 amino acids 450–481, or His6-tagged scrambled peptide was added to each of the wells and incubated overnight. After three washes with the binding buffer, the plate was treated for an hour with a 1:1000 dilution of anti-His6 mouse monoclonal antibody in the binding buffer. A 1:10,000 dilution of goat anti-mouse antibody conjugated to Horse Radish Peroxide in binding buffer was added to the wells. The plates were washed four times, five minutes each, with TBST and once with TBS. […] The absorbance values at 450 nm (A450) were measured on a 96-well plate reader. The Net A450 was obtained by subtracting the absorbance value for the blank control (no immobilized ligand) from each triplicate value obtained for the ligand–epitope interaction. […]
-FPQF(pS)YSAS-IRE and the scrambled epitope His6–Peg2-ITPPDRYDSLGLLELQRTH-YFFASQPSS-IRE overnight. […] The absorbance at 450 nm is measured to quantitate the binding. […]

[3] = target: T1, pAkt2 (active His6-tagged Akt2); parameters: method as in PMID 26377818; conditions: read-out: EC50 against pAkt2; cited from earlier work
[4] = target: macrocycle C2, Cy(YYTYTG-rcm); assay: ELISA; biotinylated peptide (2 μM) immobilised on a streptavidin plate; serial dilutions of active His6-tagged Akt2 in binding buffer (0.1% BSA, 25 mM trisCl pH 7.5, 150 mM NaCl, 0.05% Tween20), overnight at 4 °C; detected with anti-His6 antibody; A450 fitted by non-linear regression

T1 sequence (P31751 whole entry): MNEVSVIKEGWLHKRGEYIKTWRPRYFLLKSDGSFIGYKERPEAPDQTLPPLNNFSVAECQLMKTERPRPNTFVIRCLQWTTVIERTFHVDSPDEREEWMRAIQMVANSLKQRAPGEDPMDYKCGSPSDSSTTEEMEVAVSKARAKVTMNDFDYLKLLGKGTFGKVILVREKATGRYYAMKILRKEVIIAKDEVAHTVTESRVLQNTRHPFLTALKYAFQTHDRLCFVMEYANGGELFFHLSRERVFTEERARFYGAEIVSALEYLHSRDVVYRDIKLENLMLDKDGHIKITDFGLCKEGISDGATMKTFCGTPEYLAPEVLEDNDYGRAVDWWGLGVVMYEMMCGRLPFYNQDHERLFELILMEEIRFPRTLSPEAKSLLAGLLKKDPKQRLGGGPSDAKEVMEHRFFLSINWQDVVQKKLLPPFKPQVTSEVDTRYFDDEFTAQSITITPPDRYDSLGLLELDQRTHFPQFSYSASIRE
T2 sequence (P31751 whole entry): as above

Molecule: C[C@@H](O)[C@@H]1NC(=O)[C@H](Cc2ccc(O)cc2)NC(=O)[C@H]([C@@H](C)O)NC(=O)[C@H](Cc2ccc(O)cc2)NC(=O)[C@H](Cc2ccc(O)cc2)NC(=O)[C@](C)(N)CCCCCCC=CCCC[C@@](C)(C(N)=O)NC(=O)CNC1=O [C2, Cy(YYTYTG-rcm)] (H-[R8]YYTYTG[S5]-NH2; staple 1-8; N-terminus and C-terminus assumed)
- EC50 [1]: 44 nM and 42 nM

Molecule: NC1(c2ccc(-c3nc4ccn5c(=O)[nH]nc5c4cc3-c3ccccc3)cc2)CCC1 [MK-2206]
- inhibition of Akt3 relative to Akt1 and Akt2 (recombinant Akt3): five-fold less

Molecule: Cy(4fF-4fF-TYTG-rcm)
- binding to pAkt2 (pAkt2): higher binding than C2

Molecule: Cy(4fF-YTYTG-rcm)
- binding to pAkt2 (pAkt2): higher signal than C2

Molecule: Cy(-Y4fF-TYTG-rcm)
- binding to pAkt2 (pAkt2): higher signal than C2

Molecule: Cy(YYT-4fF-TG-rcm)
- binding to pAkt2 (pAkt2): decreases binding

Molecule: Cy(YYTYT-Tz4) [C1]
- binding to target phosphorylated chemical epitope [2]: better binding affinity for target chemical; also recorded: binds significantly better than the linear non-cyclized; also recorded: is a better binder than the latter
- selectivity for pAkt2 over other pAkt isoforms (pAkt2; 25 nM His6-pAkt1, pAkt2, pAkt3): selective for pAkt2 over the other two isoforms
- binding to pAkt2 (pAkt2): binds to the target pAkt2 protein
- EC50 [3]: 120 nM

Molecule: Cy(YYTYTG-Tz4)
- binding to pAkt2 (pAkt2): does not

Molecule: Cy(YYTY’T’Grcm)
- binding to pAkt2 (pAkt2): show no binding

Molecule: Cy(Y’YTY’TGrcm)
- binding to pAkt2 (pAkt2): show no binding

Molecule: full-length active His6-tagged Akt2, phosphorylated at Ser474 (pAkt2) (from UniProt P31751 1-481) (enzyme)
- EC50 [4]: 44 nM
